Consider 14 molecules from publication PMC6267619, “Isolation of Betulinic Acid, its Methyl Ester and Guaiane Sesquiterpenoids with Protein Tyrosine Phosphatase 1B Inhibitory Activity from the Roots of Saussurea lappa C.B.Clarke” (Molecules, 2008).

≈ marks a conversion by molar mass, not a printed value. Where “and” joins values, the source holds several entries; their conditions need not be identical. Equal values may be shown once.

For the experiment, the target named is T1, PTP1B (human, recombinant) (Homo sapiens, UniProt P18031).
T1 construct: purchased BIOMOL International LP (Plymouth Meeting, PA)
T1 sequence (P18031 1-435): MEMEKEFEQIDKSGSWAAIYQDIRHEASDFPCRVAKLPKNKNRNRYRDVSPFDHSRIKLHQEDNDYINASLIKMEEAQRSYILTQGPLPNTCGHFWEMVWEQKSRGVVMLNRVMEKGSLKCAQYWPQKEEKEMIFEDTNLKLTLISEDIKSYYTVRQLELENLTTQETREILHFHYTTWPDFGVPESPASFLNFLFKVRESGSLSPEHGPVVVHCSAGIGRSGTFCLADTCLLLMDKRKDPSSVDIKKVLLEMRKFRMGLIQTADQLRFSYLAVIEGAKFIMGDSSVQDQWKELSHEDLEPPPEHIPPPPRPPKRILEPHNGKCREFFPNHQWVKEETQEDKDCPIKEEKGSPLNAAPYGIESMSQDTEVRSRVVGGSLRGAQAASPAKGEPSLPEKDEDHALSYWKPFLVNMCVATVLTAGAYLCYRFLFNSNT
In words: PTP1B inhibition assay with pNPP as substrate. The class given is biochemical. The following applies: for inhibition at 30 µg/mL / Inhibition % of PTP1B activity: at 30 μg/mL; for IC50: read-out: IC50 (PTP1B inhibitory activity) (converted). How it is done:
PTP1B (human, recombinant) was purchased from BIOMOL® International LP (Plymouth Meeting, PA). The enzyme activity was measured using p-nitrophenyl phosphate (pNPP) as a substrate. To each of 96 wells in a microtiter plate (final volume: 100 μL) was added 2 mM pNPP and PTP1B (0.05-0.1 μg) in a buffer containing 50 mM citrate (pH 6.0), 0.1 M NaCl, 1 mM EDTA, and 1 mM dithiothreitol (DTT) with or without test compounds. Following incubation at 37°C for 30 min, the reaction was terminated with 10 M NaOH. The amount of produced p-nitrophenol was estimated by measuring the absorbance at 405 nm. The non-enzymatic hydrolysis of 2 mM pNPP was corrected by measuring the increase in absorbance at 405 nm obtained in the absence of PTP1B enzyme.

Setting [1] is: na = not active (less than 50% inhibition at the level of 30 μg/mL).

As to `C=C1CC[C@H]2C(=C)CC[C@H]3C(=C)C(=O)O[C@@H]3[C@@H]12` [Compound 4, dehydrocostuslactone], the inhibition at 30 µg/mL turned out to be 86.2%. Also, the IC50 under setting [1] was 28.3 µM and 28.2 µM.

Take `C=C1CC[C@H]2C(=C)CC[C@@H]3[C@H](OC(=O)[C@H]3C)[C@@H]12` [Compound 3, mokko lactone]: the inhibition at 30 µg/mL turned out to be 93.1%. Besides, the IC50 under setting [1] is 6.07 µM and 6.03 µM.

As for `C=C1CC[C@@H](O)[C@]2(C)CC[C@H]3C(=C)C(=O)O[C@@H]3[C@@H]12` [Compound 7, reynosin], the inhibition at 30 µg/mL was below 50%.

Turning to `C=C1C(=O)O[C@@H]2/C=C(\C)CC/C=C(\C)CC[C@@H]12` [Compound 5, costunolide], the inhibition at 30 µg/mL is below 50%.

`C=C(C)[C@@H]1CC[C@]2(C(=O)OC)CC[C@]3(C)[C@H](CC[C@@H]4[C@@]5(C)CC[C@H](O)C(C)(C)[C@@H]5CC[C@]43C)[C@@H]12` [Compound 2, betulinic acid methyl ester]: the inhibition at 30 µg/mL was 89.4%. For the same molecule, the IC50 under setting [1] is 1.98 µM and 1.91 µM.

Regarding `C=C1C(=O)O[C@@H]2[C@H]3C(C)=CC[C@@H](O)[C@]3(C)CC[C@@H]12` [Compound 9, santamarine], the inhibition at 30 µg/mL is below 50%.

On to `C=C(C)[C@@H]1CC[C@]2(C(=O)O)CC[C@]3(C)[C@H](CC[C@@H]4[C@@]5(C)CC[C@H](O)C(C)(C)[C@@H]5CC[C@]43C)[C@@H]12` [Compound 1, betulinic acid], for which the inhibition at 30 µg/mL came to 95.1%. For the same molecule, the IC50 under setting [1] is 1.53 µM.

Regarding `C[C@H]1[C@H](C)CC[C@]2(C(=O)O)CC[C@]3(C)C(=CC[C@@H]4[C@@]5(C)CC[C@H](O)C(C)(C)[C@@H]5CC[C@]43C)[C@H]12` [Ursolic acid, reference compound], the inhibition at 30 µg/mL is 99%.

On to `C/C1=C\[C@H]2OC(=O)[C@@H](C)[C@@H]2CC/C(C)=C/CC1` [Compound 6, 11β,13-dihydrocostunolide], for which the inhibition at 30 µg/mL is below 50%.

As for `CC[C@H](CC[C@@H](C)[C@H]1CC[C@H]2[C@@H]3CC=C4C[C@@H](O)CC[C@]4(C)[C@H]3CC[C@]12C)C(C)C` [Compound 11, β-sitosterol], the inhibition at 30 µg/mL was below 50%.

For the molecule `C=C1C(=O)O[C@@H]2[C@@H]3[C@@](C)(CC[C@@H]12)[C@H](O)CC[C@@]3(C)O` [Compound 8, 1β-hydroxy arbusculin A], the inhibition at 30 µg/mL was below 50%.

Regarding `CCCCCCCCCCCCCCCC(=O)C1=C(O)C(CO)OC1=O` (stereo not shown) [RK-682, reference compound], the “Inhibition % of PTP1B activity” value stood at 98.5%. Besides, under setting [1], the “IC50 (PTP1B inhibitory activity)” value was found to be 1.2 ± 0.09 µg/mL (≈ 3.26 µM).

On to `C=CCCCCC/C=C\C/C=C\C/C=C\CC` [Compound 12, aplotaxene], for which the “Inhibition % of PTP1B activity” value is below 50.0%.

Take `CCCCCCCCCCCCCCCCCC(=O)O[C@H]1CC[C@]2(C)[C@H]3CC=C4[C@@H]5[C@@H](C)[C@H](C)CC[C@]5(C)CC[C@@]4(C)[C@]3(C)CC[C@H]2C1(C)C` [Compound 13, α-amyrin stearate]: the “Inhibition % of PTP1B activity” value was below 50.0%.
